In US10357036B2, “Compounds for controlling arthropods” (priority 2015, dated 2019):

Columns and labels:
Rhipicephalus sanguineus = Rhipicephalus sanguineus in vitro contact test with adult brown dog ticks; type: in vivo; details: after 48 h
In short: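 Efficacy, as % of ticks dead or moribund, was judged 48 h after placing 5-10 adult brown dog ticks in acetone-coated tubes (5 μg/cm^2 from 900 ppm) kept dark at room temperature. Ticks unable to climb away from a 45-50° C hotplate within 5 min counted as affected.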

Spodoptera frugiperda = Spodoptera frugiperda spray test; type: in vivo; details: 100 g/ha; after 7 days
Ctenocephalides felis [1] = experiment: Ctenocephalides felis in vitro contact test with adult cat fleas; type: in vivo; details: application rate 5 μg/cm^2 (=500 g/ha); after 48 h; dead or moribund fleas
Protocol: For the coating of the test tubes, 9 mg of active ingredient are first dissolved in 1 ml of acetone p.a. and then diluted to the desired concentration with acetone p.a. 250 μl of the solution are distributed homogeneously on the inner walls and the base of a 25 ml glass tube by turning and rocking on an orbital shaker (rocking rotation at 30 rpm for 2 h). With 900 ppm of active ingredient solution and internal surface area 44.7 cm^2, given homogeneous distribution, an area-based dose of 5 μg/cm^2 is achieved.
After the solvent has evaporated off, the tubes are populated with 5-10 adult cat fleas (Ctenocephalides felis), sealed with a perforated plastic lid and incubated in a horizontal position at room temperature and ambient humidity. After 48 h, efficacy is determined. To this end, the tubes are stood upright and the fleas are knocked to the base of the tube. Fleas which remain motionless at the base or move in an uncoordinated manner are considered to be dead or moribund.
100% efficacy means that all the fleas were dead or moribund. 0% efficacy means that no fleas were harmed.

Boophilus microplus = Boophilus microplus injection test; type: in vivo; details: 20 μg/animal; assessed after 7 days
Protocol: (§1) • Solvent: dimethyl sulfoxide
1 μl of the active ingredient solution is injected into the abdomen of 5 engorged adult female cattle ticks (Boophilus microplus). The animals are transferred into dishes and kept in a climate-controlled room.

Phaedon cochleariae = Phaedon cochleariae spray test; details: 100 g/ha; after 7 days
Ctenocephalides felis [2] = experiment: Ctenocephalides felis oral test; type: in vivo; details: 100 ppm in citrated cattle blood; after 2 days
Musca domestica = Musca domestica test; type: in vivo; details: 100 ppm; adult houseflies; after 2 days
Protocol: as §1
To produce a suitable active ingredient formulation, 10 mg of active ingredient are mixed with 0.5 ml of dimethyl sulfoxide, and the concentrate is diluted with water to the desired concentration.
Vessels containing a sponge treated with sugar solution and the active ingredient formulation of the desired concentration are populated with 10 adult houseflies (Musca domestica).

[3] = test system: cattle ticks (Boophilus microplus) Parkhurst strain, SP-resistant; experiment: Boophilus microplus dip test; type: in vivo; details: 100 ppm; assessed after 7 days
Protocol: • Test animals: cattle ticks (Boophilus microplus) Parkhurst strain, SP-resistant • Solvent: dimethyl sulfoxide
10 mg of active ingredient are dissolved in 0.5 ml of dimethyl sulfoxide. To produce a suitable formulation, the active ingredient solution is diluted with water to the concentration desired in each case.
This active ingredient formulation is pipetted into tubes. 8-10 engorged adult female cattle ticks (Boophilus microplus) are transferred into a further tube with holes. The tube is immersed into the active ingredient formulation, and all the ticks are completely wetted. After the liquid has run out, the ticks are transferred on filter discs into plastic dishes and stored in a climate-controlled room.
Efficacy is assessed after 7 days by laying of fertile eggs. Eggs which are not visibly fertile are stored in a climate-controlled cabinet until the larvae hatch after about 42 days. An efficacy of 100% means that none of the ticks has laid any fertile eggs; 0% means that all the eggs are fertile.

Myzus persicae = Myzus persicae spray test (Chinese cabbage leaf discs); type: in vivo; details: 100 g/ha; after 6 days
Protocol: (§2) After 6 days, the efficacy in % is determined.

Tetranychus urticae = Tetranychus urticae spray test, OP-resistant (bean leaf discs); type: in vivo; details: 100 g/ha; after 6 days
Protocol: as §2

[4] = application rate 5 μg/cm^2 (=500 g/ha), dead or moribund ticks

Row | Structure (SMILES) | efficacy (Rhipicephalus sanguineus; [4]) [%] | efficacy (Spodoptera frugiperda) [%] | efficacy (Ctenocephalides felis [1]) [%] | efficacy (laying of fertile eggs) (Boophilus microplus) [%] | efficacy (Phaedon cochleariae) [%] | efficacy (rate of extermination) (Ctenocephalides felis [2]) [%] | efficacy (rate of extermination) (Musca domestica) [%] | efficacy (laying of fertile eggs) [3] [%] | efficacy (Myzus persicae) [%] | efficacy (Tetranychus urticae) [%] | efficacy (Rhipicephalus sanguineus; application rate 1 μg/cm^2 (=100 g/ha)) [%]
1 | CCC(=O)NCc1cc(-c2cnn(-c3c(C)cc(C(F)(C(F)(F)F)C(F)(F)F)cc3Cl)c2)ccc1F [Ia-66] | 100 | 100 | 100 | 100 | 100 | 100 | 100 | 95 | 70 | 100 | –
2 | CC(=O)NCc1c(F)ccc(-c2cnn(-c3c(Cl)cc(C(F)(C(F)(F)F)C(F)(F)F)cc3C(F)(F)F)c2)c1F [Ia-147] | 100 | 100 | 100 | 100 | 100 | 100 | 100 | – | 90 | 100 | –
3 | CCC(=O)N(C)Cc1cc(-c2cnn(-c3c(Cl)cc(C(F)(C(F)(F)F)C(F)(F)F)cc3Cl)c2)cnc1Cl [Ia-134] | – | 100 | 100 | 100 | 100 | 100 | 100 | – | 100 | 100 | –
4 | CCC(=O)NCc1cc(-c2cnn(-c3c(Cl)cc(C(F)(C(F)(F)F)C(F)(F)F)cc3C(F)F)c2)ccc1Cl [Ia-115] | 100 | 100 | 100 | 100 | 100 | 100 | 100 | 100 | – | 100 | –
5 | CC(=O)NCc1cc(-c2cnn(-c3c(Cl)cc(C(F)(C(F)(F)F)C(F)(F)F)cc3C(F)F)c2)cnc1Cl [Ia-145] | – | 100 | – | 100 | 100 | 100 | 100 | 100 | 90 | 100 | –
6 | CCC(=O)NCc1cc(-c2cnn(-c3c(Cl)cc(C(F)(C(F)(F)F)C(F)(F)F)cc3C(F)F)c2)ccc1F [Ia-23] | 100 | 100 | 100 | 100 | 100 | 100 | 100 | 100 | 90 | 100 | –
7 | CC(=O)NCc1cc(-c2cnn(-c3c(Cl)cc(C(F)(C(F)(F)F)C(F)(F)F)cc3C#N)c2)ccc1C [Ia-96] | – | 100 | – | 100 | – | 100 | – | 90 | – | 100 | 100
8 | CCC(=O)NCc1cc(-c2cnn(-c3c(C)cc(C(F)(C(F)(F)F)C(F)(F)F)cc3Cl)c2)ccc1C [Ia-76] | 100 | 100 | 100 | 100 | 100 | 100 | 100 | – | 90 | 100 | –
9 | CC(=O)NCc1cc(-c2cnn(-c3c(C)cc(C(F)(C(F)(F)F)C(F)(F)F)cc3Cl)c2)ccc1Cl [Ia-84] | – | 100 | – | 100 | 100 | 100 | 100 | 100 | 90 | 100 | –
10 | CC(=O)NCc1cc(-c2cnn(-c3c(Cl)cc(C(F)(C(F)(F)F)C(F)(F)F)cc3C(F)(F)F)c2)ccc1C [Ia-79] | 100 | 100 | 100 | 100 | – | 100 | 100 | 100 | 90 | 100 | –
11 | CC(=O)NCc1c(F)ccc(-c2cnn(-c3c(Cl)cc(C(F)(C(F)(F)F)C(F)(F)F)cc3Cl)c2)c1F [Ia-149] | – | 100 | 100 | 100 | 100 | 100 | 100 | – | 90 | 100 | –
12 | CCC(=O)NCc1cc(-c2cnn(-c3c(Cl)cc(C(F)(C(F)(F)F)C(F)(F)F)cc3C(F)(F)F)c2)ccc1F [Ia-83] | 100 | 100 | 100 | 100 | 100 | 100 | 100 | 80 | – | 90 | –
13 | CC(=O)NCc1cc(-c2cnn(-c3c(C)cc(C(F)(C(F)(F)F)C(F)(F)F)cc3Cl)c2)ccc1C [Ia-75] | 100 | 100 | 100 | 100 | 100 | 100 | 100 | 100 | – | 100 | –
14 | CCC(=O)NCc1cc(-c2cnn(-c3c(Cl)cc(C(F)(C(F)(F)F)C(F)(F)F)cc3C(F)(F)F)c2)ccc1C [Ia-80] | 100 | 100 | 100 | 100 | 83 | 100 | 100 | – | 90 | 100 | –
15 | CC(=O)NCc1cc(-c2cnn(-c3c(Cl)cc(C(F)(C(F)(F)F)C(F)(F)F)cc3C(F)F)c2)ccc1Cl [Ia-106] | – | 100 | – | 100 | 100 | 100 | 100 | 100 | – | 100 | –
16 | CC(=O)NCc1cc(-c2cnn(-c3c(Cl)cc(C(F)(C(F)(F)F)C(F)(F)F)cc3Br)c2)ccc1Cl [Ia-91] | – | 100 | – | 100 | 100 | 100 | 100 | 80 | – | 100 | –
17 | CCC(=O)NCc1cc(-c2cnn(-c3c(C)cc(C(F)(C(F)(F)F)C(F)(F)F)cc3C)c2)ccc1Cl [Ia-93] | 100 | 100 | 100 | 100 | 100 | 100 | 100 | 95 | – | 100 | –
18 | CC(=O)N(C)Cc1cc(-c2cnn(-c3c(Cl)cc(C(F)(C(F)(F)F)C(F)(F)F)cc3OC(F)(F)F)c2)cnc1Cl [Ia-136] | – | 100 | 100 | 100 | 100 | 100 | 100 | – | 100 | 100 | –
